Reference: US7541368B2, “Pyrazoles as inhibitors of tumor necrosis factor” (Aventis Pharmaceuticals Inc., priority 2003, dated 2009)

Test system: TNF-alpha release in THP-1 cells
Test: LPS-induced TNF-alpha release in THP-1 cells
Type: cell-based
Details: Homo sapiens, THP-1, LPS-stimulated THP-1 cells; read-out: 50% inhibition in the LPS-induced TNF-alpha release in THP-1 cells assay at concentrations within the range
Experimental: The effects of compounds on TNF-alpha production by lipopolysaccharide (LPS)-stimulated […] monocytes were examined as follows.
Undifferentiated THP-1 cells were maintained in RPMI 1640 with Glutamax I containing β-mercaptoethananol (50 μM) and foetal calf serum (FCS-10%) at densities of about 1×10^6 cells per ml. For incubations without and with test reagents, cells were seeded at the indicated densities under serum-deprived (1% FCS) conditions. Compounds were dissolved in dimethylsulfoxide (DMSO-100%) and incubated with the cells to give a fmal DMSO concentration of 0.3%. Control and untreated cell samples were incubated with DMSO (0.3%).
THP-1 cells (1×10 ^6 cells/ml, total volume 150 μl) in culture medium were incubated for 1 hour (5% CO2, 37° C.) with fresh medium containing compounds or vehicle (0.1-0.3% dimethylsulfoxide). LPS (20 μg/ml) was then added to the cells and the incubation continued for a fuirther 18 hours. Cell supernatants were removed into 96 well plates for storage at −20° C.
TNF-alpha concentrations in cell supernatants were quantified by sandwich ELISA. Briefly, ELISA plates were coated overnight with 2 μg/ml of mouse anti-human TNF-alpha antibody in bicarbonate buffer (pH 9.9). After washing the wells with wash buffer (0.05% (v/v) Tween in PBS)and blocking unoccupied sites (1% BSA in wash buffer), monocyte supernatant samples or human recombinant TNF-alpha standards were added into the corresponding wells of the ELISA plate at 1:10 dilution. Biotinylated rabbit polyclonal anti-human TNF-alpha antibody (3 μg/ml) was used as the second antibody and streptavidin-horseradish peroxidase was used as the detection antibody. The peroxidase substrate is 3,3′,5,5′-tetramethylbenzidine (TMB) in the presence of hydrogen peroxide.
TNFα concentrations in supernatants from control and LPS-stimulated monocyte incubations were calculated by interpolation from a standard (log/log) curve (0.125-16 ng/ml) fitted by Excel Fit using the Activity Base software. Compounds were tested within the concentration range of 1×10^−9M to 1×10^−6M.

Row | Structure (SMILES) | IC50 [nM]
1 | Cc1ccc(-n2nc(C(C)(C)C)cc2NC(=O)Nc2cccc(CC3CCN(C(=O)c4ccnc5ccccc45)CC3)c2)cc1 [Compound A186, 1-(5-tert-Butyl-2-p-tolyl-2H-pyrazol-3-yl)-3-{3-[1-(quinoline-4-carbonyl)-piperidin-4-ylmethyl]-phenyl}-urea] | 10 to 500
2 | Cc1ccc(-n2nc(C(C)(C)C)cc2NC(=O)Nc2cccc(CC3CCN(C(=O)Cc4cccs4)CC3)c2)cc1 [Compound A189, 1-(5-tert-Butyl-2-p-tolyl-2H-pyrazol-3-yl)-3-{3-[1-(2-thiophen-2-yl-acetyl)-piperidin-4-ylmethyl]-phenyl}-urea] | 10 to 500
3 | Cc1ccc(-n2nc(C(C)(C)C)cc2NC(=O)Nc2cccc(CC3CCN(C(=O)Cc4ccsc4)CC3)c2)cc1 [Compound A190, 1-(5-tert-Butyl-2-p-tolyl-2H-pyrazol-3-yl)-3-{3-[1-(2-thiophen-3-yl-acetyl)-piperidin-4-ylmethyl]-phenyl}-urea] | 10 to 500
4 | CO[C@H](C(=O)N1CCC(Cc2ccc(NC(=O)Nc3cc(C(C)(C)C)nn3-c3ccc(C)cc3)cc2)CC1)c1ccccc1 [Compound A193, 1-(5-tert-Butyl-2-p-tolyl-2H-pyrazol-3-yl)-3-{4-[1-((S)-2-methoxy-2-phenyl-acetyl)-piperidin-4-ylmethyl]-phenyl}-urea] | 10 to 500
5 | Cc1ccc(-n2nc(C(C)(C)C)cc2NC(=O)Nc2ccc(CC3CCN(C(=O)c4csnn4)CC3)cc2)cc1 [Compound A196, 1-(5-tert-Butyl-2-p-tolyl-2H-pyrazol-3-yl)-3-{4-[1-([1,2,3]thiadiazole-4-carbonyl)-piperidin-4-ylmethyl]-phenyl}-urea] | 10 to 500
6 | Cc1ccc(-n2nc(C(C)(C)C)cc2NC(=O)Nc2ccc(CC3CCN(C(=O)c4ccc5cnccc5n4)CC3)cc2)cc1 [Compound A197, 1-(5-tert-Butyl-2-p-tolyl-2H-pyrazol-3-yl)-3-{4-[1-([1,6]naphthyridine-2-carbonyl)-piperidin-4-ylmethyl]-phenyl}-urea] | 10 to 500
7 | Cc1ccc(-n2nc(C(C)(C)C)cc2NC(=O)Nc2ccc(CC3CCN(C(=O)C4(C)CC4)CC3)cc2)cc1 [Compound A206, 1-(5-tert-Butyl-2-p-tolyl-2H-pyrazol-3-yl)-3-{4-[1-(1-methyl-cyclopropanecarbonyl)-piperidin-4-ylmethyl]-phenyl}-urea] | 10 to 500
8 | COc1cccc(C(=O)N2CCC(Cc3ccc(NC(=O)Nc4cc(C(C)(C)C)nn4-c4ccc(C)cc4)cc3)CC2)c1OC [Compound A212, 1-(5-tert-Butyl-2-p-tolyl-2H-pyrazol-3-yl)-3-{4-[1-(2,3-dimethoxy-benzoyl)-piperidin-4-ylmethyl]-phenyl}-urea] | 10 to 500

Other lines, results leading:

Row | IC50 [nM] | Structure (SMILES)
9 | 10 to 500 | COc1cccc(CC(=O)N2CCC(Cc3ccc(NC(=O)Nc4cc(C(C)(C)C)nn4-c4ccc(C)cc4)cc3)CC2)c1OC [Compound A213, 1-(5-tert-Butyl-2-p-tolyl-2H-pyrazol-3-yl)-3-(4-{1-[2-(2,3-dimethoxy-phenyl)-acetyl]-piperidin-4-ylmethyl}-phenyl)-urea]
10 | 10 to 500 | COc1cc(OC)c(C(=O)N2CCC(Cc3ccc(NC(=O)Nc4cc(C(C)(C)C)nn4-c4ccc(C)cc4)cc3)CC2)c(OC)c1 [Compound A215, 1-(5-tert-Butyl-2-p-tolyl-2H-pyrazol-3-yl)-3-{4-[1-(2,4,6-trimethoxy-benzoyl)-piperidin-4-ylmethyl]-phenyl}-urea]
11 | 10 to 500 | Cc1ccc(-n2nc(C(C)(C)C)cc2NC(=O)Nc2ccc(CC3CCN(C(=O)c4c(C)cc(C)cc4C)CC3)cc2)cc1 [Compound A216, 1-(5-tert-Butyl-2-p-tolyl-2H-pyrazol-3-yl)-3-{4-[1-(2,4,6-trimethyl-benzoyl)-piperidin-4-ylmethyl]-phenyl}-urea]
12 | 10 to 500 | Cc1ccc(-n2nc(C(C)(C)C)cc2NC(=O)Nc2ccc(CC3CCN(C(=O)c4cc(C)oc4C)CC3)cc2)cc1 [Compound A222, 1-(5-tert-Butyl-2-p-tolyl-2H-pyrazol-3-yl)-3-{4-[1-(2,5-dimethyl-furan-3-carbonyl)-piperidin-4-ylmethyl]-phenyl}-urea]
